How the values were obtained:
[1] = target: T1, NET (norepinephrine transporter) (Homo sapiens, UniProt P23975); assay: radioligand displacement of [3H]nisoxetine, CHO cell membranes
T1 construct: gene SLC6A2

[2] = target: T2, SERT (serotonin transporter) (Homo sapiens, UniProt P31645); assay: radioligand displacement of [3H]imipramine, CHO cell membranes
T2 construct: gene SLC6A4

[3] = target: T3, DAT (dopamine transporter) (Homo sapiens, UniProt Q01959); assay: radioligand displacement of [3H]BTCP, CHO cell membranes
T3 construct: gene SLC6A3
T3 sequence (Q01959 whole entry): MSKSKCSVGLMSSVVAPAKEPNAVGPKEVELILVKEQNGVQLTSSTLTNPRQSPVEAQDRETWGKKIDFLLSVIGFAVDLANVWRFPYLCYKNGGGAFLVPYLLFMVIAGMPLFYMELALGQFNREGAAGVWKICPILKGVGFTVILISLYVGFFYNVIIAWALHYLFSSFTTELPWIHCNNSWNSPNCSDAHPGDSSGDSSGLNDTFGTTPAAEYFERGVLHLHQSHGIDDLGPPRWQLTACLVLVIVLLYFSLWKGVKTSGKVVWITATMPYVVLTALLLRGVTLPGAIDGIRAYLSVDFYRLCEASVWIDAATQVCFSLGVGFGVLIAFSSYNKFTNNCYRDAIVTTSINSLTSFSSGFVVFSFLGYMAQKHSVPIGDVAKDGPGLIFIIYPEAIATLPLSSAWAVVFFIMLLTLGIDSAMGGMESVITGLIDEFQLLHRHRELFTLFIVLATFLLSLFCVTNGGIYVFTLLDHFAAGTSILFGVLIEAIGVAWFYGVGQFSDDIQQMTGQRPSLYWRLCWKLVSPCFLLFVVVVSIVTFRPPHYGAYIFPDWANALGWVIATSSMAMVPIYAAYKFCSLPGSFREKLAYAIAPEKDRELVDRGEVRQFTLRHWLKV

T1 sequence (P23975 whole entry): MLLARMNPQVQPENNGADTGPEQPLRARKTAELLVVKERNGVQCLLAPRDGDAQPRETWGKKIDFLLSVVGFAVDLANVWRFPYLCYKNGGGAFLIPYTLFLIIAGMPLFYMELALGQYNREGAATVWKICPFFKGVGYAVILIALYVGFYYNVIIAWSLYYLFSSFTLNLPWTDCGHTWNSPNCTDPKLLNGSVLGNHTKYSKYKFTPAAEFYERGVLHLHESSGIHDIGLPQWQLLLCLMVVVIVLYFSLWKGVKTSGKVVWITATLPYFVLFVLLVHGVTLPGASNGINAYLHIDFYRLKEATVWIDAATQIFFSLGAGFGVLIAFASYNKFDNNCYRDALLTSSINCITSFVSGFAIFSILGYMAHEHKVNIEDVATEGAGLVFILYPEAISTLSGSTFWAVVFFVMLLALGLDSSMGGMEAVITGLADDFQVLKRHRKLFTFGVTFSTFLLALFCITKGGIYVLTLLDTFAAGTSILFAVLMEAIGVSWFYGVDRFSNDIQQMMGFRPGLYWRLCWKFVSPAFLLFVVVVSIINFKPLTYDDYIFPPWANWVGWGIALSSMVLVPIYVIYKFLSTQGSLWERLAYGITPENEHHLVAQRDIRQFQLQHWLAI
T2 sequence (P31645 whole entry): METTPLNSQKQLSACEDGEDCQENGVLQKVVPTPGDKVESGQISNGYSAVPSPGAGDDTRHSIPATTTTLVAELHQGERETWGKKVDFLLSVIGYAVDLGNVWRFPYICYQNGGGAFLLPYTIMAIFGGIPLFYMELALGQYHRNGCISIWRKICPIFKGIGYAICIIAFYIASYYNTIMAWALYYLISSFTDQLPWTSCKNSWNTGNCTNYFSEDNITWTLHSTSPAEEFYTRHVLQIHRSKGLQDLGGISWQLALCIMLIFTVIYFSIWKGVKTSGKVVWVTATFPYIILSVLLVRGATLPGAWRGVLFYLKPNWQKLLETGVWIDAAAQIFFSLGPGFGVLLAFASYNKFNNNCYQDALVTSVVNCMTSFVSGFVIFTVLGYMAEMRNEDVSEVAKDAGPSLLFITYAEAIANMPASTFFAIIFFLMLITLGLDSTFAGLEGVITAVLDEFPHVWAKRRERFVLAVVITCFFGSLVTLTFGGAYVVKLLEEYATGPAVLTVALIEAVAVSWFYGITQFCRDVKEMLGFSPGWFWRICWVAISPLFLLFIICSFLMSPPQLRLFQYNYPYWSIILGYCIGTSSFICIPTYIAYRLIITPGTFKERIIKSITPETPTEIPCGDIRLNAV

CN(C)CC(c1ccc(Oc2ccccc2)cc1)C1(O)CCCCC1 (stereo not drawn) [LPM580098, 1-[2-(dimethylamino)-1-(4-phenoxyphenyl)ethyl] cyclohexanol]
inhibition at 10 µM [1]: 45% | inhibition at 10 µM [2]: 90.3% | inhibition at 10 µM [3]: 77.5%

From paper PMC6382704, “LPM580098, a Novel Triple Reuptake Inhibitor of Serotonin, Noradrenaline, and Dopamine, Attenuates Neuropathic Pain” (Frontiers in Pharmacology, 2019)
